The results in this text go back to patent US20170008888A1 (KYORIN PHARMACEUTICAL CO., LTD., priority 2014, published 2017).

One experiment relates to ABL or ARG. The experiment is described as follows: Probe-based (AX9989) kinase profiling in Jurkat lysate: ABL or ARG. The note with it: screening concentration 10 μM. In kind it is binding. A digest of the protocol:
(§1)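 Gel-filtered Jurkat lysate (HEPES pH 7.5, 20 mM MnCl2, 5 mg/ml) was pre-incubated 15 min with compound at room temperature, then labelled with 5 μM acyl-phosphate ATP probe AX9989. Tryptic probe-labelled active-site peptides were streptavidin-captured and quantified by LC/MS. Percent inhibition reflected the decrease in labelled-peptide intensity versus no compound.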

In a further experiment the test system is human PBMCs. The experiment is described as follows: Human PBMC TNF-α response to endotoxin (ELISA). In kind it is cell-based. The note with it: 0.1 μg/ml LPS 16 h, read-out: EC50 for the inhibition of the human PBMC TNF-α response to endotoxin, ave. ± S.D. Put shortly: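 PBMCs at 2e6 cells/ml in RPMI 1640 with 10% charcoal-dextran-treated FBS were pre-treated 1 h at 37 °C with compound (4-point 1:5 dilution from 10 μM). Stimulation with 0.1 μg/ml E. coli 0111:B4 LPS for 16 h; TNF-α measured by ELISA (A450) in 25-fold diluted supernatant.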

For a further experiment, the system named is AMPKa1 or AMPKa2. The experiment is described as follows: Probe-based (AX9989) kinase profiling in Jurkat lysate: AMPKa1 or AMPKa2. In kind it is binding. To be noted: screening concentration 10 μM. Put shortly: as §1
In another experiment the target is T1, AurA (Homo sapiens, UniProt O14965).
T1 construct: screened for activity against several kinases in Jurkat cells; endogenous in cells; host or cells: Jurkat cell lysate
T1 sequence (O14965 1-403): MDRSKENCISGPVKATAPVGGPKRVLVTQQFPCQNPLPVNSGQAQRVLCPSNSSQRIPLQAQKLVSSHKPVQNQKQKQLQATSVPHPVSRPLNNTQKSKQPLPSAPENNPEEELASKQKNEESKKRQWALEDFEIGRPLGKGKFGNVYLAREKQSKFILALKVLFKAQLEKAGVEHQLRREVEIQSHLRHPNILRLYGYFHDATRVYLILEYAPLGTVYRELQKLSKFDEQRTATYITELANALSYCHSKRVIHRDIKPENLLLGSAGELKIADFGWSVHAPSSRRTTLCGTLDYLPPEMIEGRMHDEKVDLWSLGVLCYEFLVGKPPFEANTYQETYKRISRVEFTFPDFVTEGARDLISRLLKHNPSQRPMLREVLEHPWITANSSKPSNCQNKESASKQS
Put plainly: Probe-based (AX9989) kinase profiling in Jurkat lysate: AurA. The note with it: screening concentration 10 μM; read-out: AurA Inhibition % at indicated screening concentration. In kind it is binding. Put shortly:
as §1

Experiment [1] deals with T2, recombinant human ERK5 catalytic domain (Homo sapiens, UniProt Q13164).
T2 construct: Recombinant human ERK5 catalytic domain radiometric assays; purchased Reaction Biology, Corp (Malvern, Pa.), which ran the assay as a service
T2 sequence (Q13164 55-347 limits assumed): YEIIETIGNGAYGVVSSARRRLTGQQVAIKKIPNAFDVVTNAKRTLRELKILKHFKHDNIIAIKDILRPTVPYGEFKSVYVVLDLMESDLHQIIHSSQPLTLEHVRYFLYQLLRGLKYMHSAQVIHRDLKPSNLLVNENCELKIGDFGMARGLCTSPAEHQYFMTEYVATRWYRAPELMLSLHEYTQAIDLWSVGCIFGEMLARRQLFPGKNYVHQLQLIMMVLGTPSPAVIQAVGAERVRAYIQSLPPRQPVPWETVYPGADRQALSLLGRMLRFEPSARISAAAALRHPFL
Put plainly: Recombinant human ERK5 radiometric (HotSpot) assay. In kind it is biochemical. The note with it: 10 μM ATP, 20 μM myelin basic protein substrate; read-out: rhERK5 IC50. A digest of the protocol: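 Radiometric filter-binding HotSpot assay using [γ-33P]-ATP tracer with 10 μM cold ATP and 20 μM myelin basic protein substrate. Compounds tested in 10-point, ⅓-fold serial dilution from 20 μM; […].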

With `CN1C(=O)c2c(F)cccc2Oc2cc(N[C@H]3CC[C@H](O)CC3)ncc21` [Compound T92], in the experiment on ABL or ARG, the “ABL or ARG Inhibition % at indicated screening concentration” value (“ABL or ARG Inhibition %” below) is reported as “E (E is ≦35%)”. Besides, in the experiment on human PBMCs, the EC50 came out at 440 ± 290 nM. Moreover, the “AMPKa1 or AMPKa2 Inhibition % at indicated screening concentration” value (shortened to “AMPKa1 or AMPKa2 Inhibition %”) in the experiment with AMPKa1 or AMPKa2 is listed as “E (E is ≦35%)”. Moreover, on AurA, the inhibition at 10 µM was no more than 35%. In experiment [1], the IC50 fell in the range of 50 to 200 nM.

For `COc1cccc2c1Oc1cc(N[C@H]3CC[C@H](O)CC3)ncc1N(C)C2=O` [Compound T95], the “ABL or ARG Inhibition %” value with ABL or ARG is given as “E (E is ≦35%)”. Also, the EC50 in the experiment with human PBMCs came to 1380 ± 1710 nM. The “AMPKa1 or AMPKa2 Inhibition %” value with AMPKa1 or AMPKa2 is listed as “D (D is >35% to ≦50%)”. Also, the inhibition at 10 µM on AurA is no more than 35%. Besides, the IC50 in experiment [1] was greater than 200 nM.

Regarding `CN1C(=O)c2c(F)ccc(F)c2Oc2cc(N[C@H]3CC[C@H](O)CC3)ncc21` [Compound T97], the “ABL or ARG Inhibition %” value in the experiment with ABL or ARG is “E (E is ≦35%)”. Further, in the experiment on human PBMCs, the EC50 was 430 ± 450 nM. For the same compound, the “AMPKa1 or AMPKa2 Inhibition %” value with AMPKa1 or AMPKa2 is “E (E is ≦35%)”. Further, the inhibition at 10 µM at AurA was no more than 35%. In addition, the IC50 in experiment [1] was greater than 200 nM.

Turning to `CCOc1cc(C(=O)N2CCN(C3CCN(C)CC3)CC2)ccc1Nc1cc2c(cn1)N(C)C(=O)c1ccccc1O2` [Compound T98], in the experiment with ABL or ARG, the “ABL or ARG Inhibition %” value is given as “E (E is ≦35%)”. In the experiment with human PBMCs, the EC50 was 810 ± 920 nM. The “AMPKa1 or AMPKa2 Inhibition %” value in the experiment with AMPKa1 or AMPKa2 is “E (E is ≦35%)”. The inhibition at 10 µM on AurA was no more than 35%. In experiment [1], the IC50 fell in the range of 20 to 50 nM.

For `CCOc1cc(C(=O)N2CCN(C3CCN(C)CC3)CC2)ccc1Nc1cc2c(cn1)N(C)C(=O)c1c(F)cccc1O2` [Compound T102], in the experiment with ABL or ARG, the “ABL or ARG Inhibition %” value is “E (E is ≦35%)”. Also, the EC50 with human PBMCs is 290 ± 280 nM. Further, the “AMPKa1 or AMPKa2 Inhibition %” value with AMPKa1 or AMPKa2 was “E (E is ≦35%)”. Besides, the inhibition at 10 µM at AurA is no more than 35%. For the same compound, the IC50 in experiment [1] was in the range of 20 to 50 nM.

In the case of `C[C@@H]1C[C@H](Nc2cc3c(cn2)N(C)C(=O)c2ccccc2N3C)CC[C@H]1O` [Compound T115], the “ABL or ARG Inhibition %” value in the experiment with ABL or ARG is “E (E is ≦35%)”. Also, the EC50 with human PBMCs was 780 ± 690 nM. Besides, the “AMPKa1 or AMPKa2 Inhibition %” value with AMPKa1 or AMPKa2 is “E (E is ≦35%)”. The inhibition at 10 µM at AurA is no more than 35%. For the same compound, the IC50 in experiment [1] is greater than 200 nM.
